Experimental data published in patent US20140128352A1, “COMPOUNDS AND METHODS FOR MODULATING MITOCHONDRIAL METABOLISM AND REACTIVE OXYGEN SPECIES PRODUCTION” (Buck Institute for Research on Aging, priority 2012, published 2014).
“Also recorded” adds a separate entry of the source. Each block holds one compound with its values, some of them ahead of it.

How the values were obtained:
complex I = experiment: Rate of NAD(P)H reduction via complex I versus observed ROS production; assay type: biochemical, rat; conditions: 2.5 uM; succinate with low glutamate; FIG. 2B
Experimental: To compare candidate IQ ROS inhibitors with mitochondrial inhibitors known to disrupt complex I activity (e.g. rotenone) or oxidize the electron transport chain (e.g. the uncoupler FCCP), the rate of NAD(P)H reduction via complex I was measured when isolated mitochondria were provided with saturating concentrations of the complex II substrate succinate (5 mM) and subsaturating levels of glutamate (1 mM) to facilitate full activation of complex II by oxaloacetate removal. […] These conditions allow electron and proton fluxes through complex Ito reverse and be directed predominantly toward the matrix. Addition of succinate causes a rapid increase in the reduction state of the matrix NAD(P)H pool that can be monitored as described above. The rate of NAD(P)H reduction is therefore a measure of electron flux through complex I for which direct comparisons can be made under identical conditions to effects on rates of ROS production.

site IF = biological target: T1, site IF (Rattus norvegicus, UniProt Q5XIH3); experiment: Relationship of site IF ROS production to steady state matrix NAD(P)H reduction; assay type: biochemical; conditions: high NADH reduction (>90%)
T1 construct: freshly isolated muscle mitochondria were assayed; from tissue; host or cells: rat skeletal muscle mitochondria (Wistar, Harlan Laboratories)
T1 sequence (Q5XIH3 21-464 limits assumed): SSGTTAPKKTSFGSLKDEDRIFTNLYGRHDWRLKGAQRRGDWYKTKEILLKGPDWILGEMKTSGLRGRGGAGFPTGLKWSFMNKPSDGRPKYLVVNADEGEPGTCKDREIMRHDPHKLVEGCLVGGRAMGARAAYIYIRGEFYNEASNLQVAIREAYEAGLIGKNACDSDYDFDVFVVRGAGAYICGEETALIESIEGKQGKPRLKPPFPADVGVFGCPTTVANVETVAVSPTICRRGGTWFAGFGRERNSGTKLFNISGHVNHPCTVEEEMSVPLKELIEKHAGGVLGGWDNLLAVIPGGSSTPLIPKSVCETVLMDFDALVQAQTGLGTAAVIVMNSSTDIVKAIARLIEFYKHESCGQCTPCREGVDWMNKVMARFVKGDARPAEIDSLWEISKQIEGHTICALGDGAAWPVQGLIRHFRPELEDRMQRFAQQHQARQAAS
Experimental: The rate of ROS production from site IF is linked to the reduction state of the NAD(P)H pool in the mitochondrial matrix (Treberg et al., 2011; Quinlan et al, submitted). Therefore, to evaluate the mechanism of action of putative IF ROS inhibitors, the effect of candidate compounds on the relationship between site IF ROS production and NAD(P)H reduction was tested.

GPDH = biological target: T2, GPDH (Rattus norvegicus, UniProt P35571); experiment: Retest of GPDH ROS production (expanded microplate panel / cuvette); assay type: biochemical; conditions: microplate or cuvette
T2 construct: from tissue; host or cells: rat skeletal muscle mitochondria (Wistar, Harlan Laboratories)
T2 sequence (P35571 43-727): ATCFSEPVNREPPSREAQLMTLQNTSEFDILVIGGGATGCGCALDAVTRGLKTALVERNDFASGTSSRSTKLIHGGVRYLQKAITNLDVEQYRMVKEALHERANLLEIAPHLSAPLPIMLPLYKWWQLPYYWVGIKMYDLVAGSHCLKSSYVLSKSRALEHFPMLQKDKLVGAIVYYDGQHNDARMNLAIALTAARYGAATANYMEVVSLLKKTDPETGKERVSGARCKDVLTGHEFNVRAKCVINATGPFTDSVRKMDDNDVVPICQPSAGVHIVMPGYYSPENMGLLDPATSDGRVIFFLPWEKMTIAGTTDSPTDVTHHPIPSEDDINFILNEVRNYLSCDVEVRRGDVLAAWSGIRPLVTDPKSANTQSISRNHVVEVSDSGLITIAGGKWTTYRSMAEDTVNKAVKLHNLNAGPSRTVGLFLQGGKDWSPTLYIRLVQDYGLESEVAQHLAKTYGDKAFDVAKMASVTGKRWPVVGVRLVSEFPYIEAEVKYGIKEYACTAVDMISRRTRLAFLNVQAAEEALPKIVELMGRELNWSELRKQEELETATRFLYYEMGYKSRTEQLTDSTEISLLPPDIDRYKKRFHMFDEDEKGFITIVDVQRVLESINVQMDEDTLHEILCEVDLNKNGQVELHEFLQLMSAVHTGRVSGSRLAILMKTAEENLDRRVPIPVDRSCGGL
Experimental: Compounds identified as site-selective hits as well as structural analogs were re-sourced from ChemBridge and dissolved in DMSO as 80 mM stocks. Master Titration Plates were prepared manually by serially diluting 80 mM compound stocks between 0.08 and 80 mM on 96-well microplates. Four compounds were titrated in duplicate on each plate. Additional DMSO controls were interspersed across these plates to serve as local normalization controls during analysis since two-way median polishing was not appropriate. Just prior to use, compounds were diluted 100-fold with standard buffer (10X). The same known inhibitor positive controls were included on each plate as during high-throughput screening.
The five core ROS assays and single ΔΨm assay were carried out as in the initial high-throughput screen. In addition, several assays were included to help validate the specificity of the compounds for a given site of production. All compounds were titrated against separate assays targeting IQ ROS and IIIQo ROS using subsaturating (0.5 mM final) succinate. […] Specifically, ΔΨm was monitored separately with 5 mM succinate (in the presence of 4 μM rotenone) in addition to glutamate and malate as before. The use of different substrates was designed to reveal compounds that disrupt mitochondrial function in a substrate specific manner.
Most frequently, these changes involved the use of different substrates to supply electrons from an alternative entry point in the chain. If a site of ROS production is being targeted selectively by a compound, then in many cases the supply of electrons should not influence the effectiveness of this compound at suppressing ROS production. […]
The fluorescence values in each well were scaled in relation to the intra-plate DMSO and known inhibitor controls as in the high-throughput screen except that median values for local interspersed DMSO wells (3-6 wells) were used rather than just the 8 DMSO wells in columns 1 and 12. […]

mitochondrial GPDH = biological target: T3, mitochondrial GPDH (Rattus norvegicus, UniProt P35571); experiment: Mitochondrial GPDH activity (DCPIP reduction); assay type: biochemical
T3 construct: The activity of GPDH in intact mitochondria (0.3 mg/mL) was measured; from tissue; host or cells: rat skeletal muscle mitochondria (Wistar, Harlan Laboratories)
T3 sequence (P35571 43-727): T2 sequence (P35571 43-727)

Compound: O=[N+]([O-])c1ccc(Oc2ccc(S(=O)(=O)NC3CCCCC3)cc2)cc1 [Compound 4]
suppression of observed ROS before any sign of altered flux through CI to NADH (complex I): at least 45%

Compound: Cc1ccc(C)c(CN(CCCN(C)C)CCCN(C)C)c1 [Compound 32]
ROS production from site IF in relation to NADH reduction (site IF): lowers the amount of ROS production from site IF as the matrix NADH pool becomes strongly reduced; also recorded: the expected ROS production was suppressed

effect on GPDH ROS on retesting (GPDH): progressively inhibited GPDH ROS
Compound: O=C(O)CSc1cccc(C(=O)Nc2ccc(Br)cc2)c1 [Compound 47]

kinetics of inhibition of GPDH activity (mitochondrial GPDH): mixed inhibition kinetics | potency at inhibiting GPDH activity relative to Compound No. 46 (mitochondrial GPDH): at least 6 times
Compound: O=C(O)CCC(=O)Nc1ccc(-c2nc3cc4ccccc4cc3[nH]2)cc1 [Compound 61]
effect on GPDH ROS on retesting (GPDH): more potent inhibitor of GPDH-specific ROS, ΔΨm, and respiration
